Test results from PMC10967972, “Different Coactivator Recruitment to Human PPARα/δ/γ Ligand-Binding Domains by Eight PPAR Agonists to Treat Nonalcoholic Fatty Liver Disease” (Biomedicines, 2024).
Like-named read-outs stand apart in the source and are kept apart here.

Tests used:
Type in all cases: biochemical
[1] = target: T1, human PPARα-LBD (Homo sapiens, UniProt Q07869); experiment: TR-FRET coactivator recruitment assay, PPARα-LBD; details: for EC50: Buffer A; for Approximate potency order in the recruitment of four coactivators, PPARα: evaluated based on EC50 values, PGC, PGC1α, SRC, SRC1, TRAP, TRAP220
T1 construct: Human PPARα-LBD [amino acids (AAs) 200–468]; made in house
T1 sequence (Q07869 200-468): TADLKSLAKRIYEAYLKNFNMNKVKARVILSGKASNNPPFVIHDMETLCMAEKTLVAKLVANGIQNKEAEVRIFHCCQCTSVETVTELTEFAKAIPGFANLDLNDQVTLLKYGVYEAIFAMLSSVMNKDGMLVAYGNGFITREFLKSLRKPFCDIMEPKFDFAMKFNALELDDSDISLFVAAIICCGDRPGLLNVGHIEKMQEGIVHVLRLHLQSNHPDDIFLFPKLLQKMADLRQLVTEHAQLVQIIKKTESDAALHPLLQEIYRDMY

[2] = target: T2, human PPARδ-LBD (Homo sapiens, UniProt Q03181); experiment: TR-FRET coactivator recruitment assay, PPARδ-LBD; details: for EC50: Buffer A; for Approximate potency order in the recruitment of four coactivators, PPARδ: evaluated based on EC50 values, PGC, PGC1α, SRC, SRC1, TRAP, TRAP220; for recruitment of coactivators to PPARδ-LBD (in words): four coactivator peptides
T2 construct: PPARδ-LBD (AAs 170–441); made in house
T2 sequence (Q03181 170-441): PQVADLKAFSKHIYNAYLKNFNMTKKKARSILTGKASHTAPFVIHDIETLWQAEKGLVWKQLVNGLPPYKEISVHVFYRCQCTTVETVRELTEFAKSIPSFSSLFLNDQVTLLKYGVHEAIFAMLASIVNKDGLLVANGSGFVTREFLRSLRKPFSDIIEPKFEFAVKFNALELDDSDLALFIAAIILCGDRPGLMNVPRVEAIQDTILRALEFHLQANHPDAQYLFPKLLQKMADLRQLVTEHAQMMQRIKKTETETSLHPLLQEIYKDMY

[3] = target: T3, human PPARγ-LBD (Homo sapiens, UniProt P37231); experiment: TR-FRET coactivator recruitment assay, PPARγ-LBD; details: for Approximate potency order in the recruitment of four coactivators, PPARγ: evaluated based on EC50 values, PGC, PGC1α, SRC, SRC1, TRAP, TRAP220
T3 construct: PPARγ-LBD (AAs 203–477 in isoform 1); made in house
T3 sequence (P37231 203-477 isoform P37231-2): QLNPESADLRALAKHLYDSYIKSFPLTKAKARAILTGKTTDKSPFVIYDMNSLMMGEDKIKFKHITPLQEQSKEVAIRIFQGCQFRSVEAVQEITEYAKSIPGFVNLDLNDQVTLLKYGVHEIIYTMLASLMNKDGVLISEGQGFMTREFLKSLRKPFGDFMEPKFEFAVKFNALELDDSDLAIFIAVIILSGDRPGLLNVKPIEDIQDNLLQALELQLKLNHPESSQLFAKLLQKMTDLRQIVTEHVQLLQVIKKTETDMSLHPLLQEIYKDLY

[4] = CBP peptide recruitment, read-out: PPARα CBP EC50
[5] = PGC1α peptide recruitment, read-out: PPARα PGC1α EC50
[6] = SRC1 peptide recruitment, read-out: PPARα SRC1 EC50
[7] = TRAP220 peptide recruitment, read-out: PPARα TRAP220 EC50
[8] = read-out: PPARα CBP % of GW7647 max response
[9] = read-out: PPARα PGC1α % of GW7647 max response
[10] = read-out: PPARα SRC1 % of GW7647 max response
[11] = read-out: PPARα TRAP220 % of GW7647 max response
[12] = CBP peptide recruitment, read-out: PPARδ CBP EC50
[13] = PGC1α peptide recruitment, read-out: PPARδ PGC1α EC50
[14] = SRC1 peptide recruitment, read-out: PPARδ SRC1 EC50
[15] = TRAP220 peptide recruitment, read-out: PPARδ TRAP220 EC50
[16] = read-out: PPARδ CBP % of GW501516 max response
[17] = read-out: PPARδ PGC1α % of GW501516 max response
[18] = read-out: PPARδ SRC1 % of GW501516 max response
[19] = read-out: PPARδ TRAP220 % of GW501516 max response
[20] = CBP peptide recruitment, Buffer A, read-out: PPARγ CBP EC50
[21] = PGC1α peptide recruitment, Buffer A, read-out: PPARγ PGC1α EC50
[22] = SRC1 peptide recruitment, Buffer A, read-out: PPARγ SRC1 EC50
[23] = TRAP220 peptide recruitment, Buffer A, read-out: PPARγ TRAP220 EC50
[24] = read-out: PPARγ CBP % of GW1929 max response
[25] = read-out: PPARγ PGC1α % of GW1929 max response
[26] = read-out: PPARγ SRC1 % of GW1929 max response
[27] = read-out: PPARγ TRAP220 % of GW1929 max response

EC50 [1, 4] [µM] | EC50 [1, 5] [µM] | EC50 [1, 6] [µM] | EC50 [1, 7] [µM] | Approximate potency order in the recruitment of four coactivators, PPARα [1] | Emax [1, 8] [%] | Emax [1, 9] [%] | Emax [1, 10] [%] | Emax [1, 11] [%] | Approximate potency order in the recruitment of four coactivators, PPARδ [2] | recruitment of coactivators to PPARδ-LBD (in words) [2] | Emax [2, 16] [%] | Emax [2, 17] [%] | Emax [2, 18] [%] | Emax [2, 19] [%] | EC50 [3, 20] [µM] | EC50 [3, 21] [µM] | EC50 [3, 22] [µM] | EC50 [3, 23] [µM] | Approximate potency order in the recruitment of four coactivators, PPARγ [3] | Compound | further results
4.02 | 9.95 | 10.4 | 7.31 | CBP>TRAP>PGC=SRC | 71.7 | 41.8 | 49.3 | 64.7 | PGC>CBP>TRAP>SRC | effective | 101 | 103 | 57.5 | 86.5 | 2.64 | 4.31 | 7.69 | 5.07 | CBP>PGC>TRAP>SRC | O=C(O)CCCc1cc2cc(Cl)ccc2n1S(=O)(=O)c1ccc2ncsc2c1 [Lanifibranor, lanifibranor] | EC50 [2, 12]: 3.72 µM; EC50 [2, 13]: 2.46 µM; EC50 [2, 14]: 6.97 µM; EC50 [2, 15]: 4.41 µM; Emax [3, 24]: 83.3%; Emax [3, 25]: 70.5%; Emax [3, 26]: 46.1%; Emax [3, 27]: 60.4%
– | – | – | – | – | – | – | – | – | – | – | – | – | – | – | – | – | – | – | – | GW1929 | PPARγ CBP maximal fold-induction of basal levels ([3]; CBP peptide, fold over no ligand): 14.7 ×; PPARγ PGC1α maximal fold-induction of basal levels ([3]; PGC1α peptide, fold over no ligand): 11.9 ×; PPARγ SRC1 maximal fold-induction of basal levels ([3]; SRC1 peptide, fold over no ligand): 12.6 ×; PPARγ TRAP220 maximal fold-induction of basal levels ([3]; TRAP220 peptide, fold over no ligand): 15.5 ×; maximal fold-induction from basal (no ligand) levels on the four coactivators, PPARγ ([3]; range over PGC1α, CBP, SRC1, TRAP220, Buffer A): 11.9–15.5 ×
1.19 | 2.05 | 1.92 | 1.84 | CBP>PGC>SRC=TRAP | 49.2 | 34.3 | 15.5 | 11 | PGC>CBP>SRC=TRAP | effective | 120 | 113 | 146 | 136 | 10.7 | 4.98 | 22.4 | 13.6 | PGC=CBP>TRAP>SRC | CCO[C@H](COc1ccc(C(F)(F)F)cc1)CSc1ccc(OCC(=O)O)c(C)c1 [Seladelpar, seladelpar] | EC50 [2, 12]: 0.0468 µM; EC50 [2, 13]: 0.0317 µM; EC50 [2, 14]: 0.0748 µM; EC50 [2, 15]: 0.0607 µM; EC50 ([2]; range over PGC1α, CBP, SRC1, TRAP220, read-out: EC50 values on the four coactivators, PPARδ): 0.0317 to 0.0748 µM; extent of recruitment of four coactivators to PPARδ-LBD ([2]; range over four coactivators, 100% = 0.1 µM GW501516): 113–146%; Emax [3, 24]: 45.9%; Emax [3, 25]: 49.8%; Emax [3, 26]: 11.9%; Emax [3, 27]: 20.5%
2.77 | 6.44 | 4.98 | 4.28 | CBP>PGC=SRC=TRAP | 61.6 | 45.6 | 41.6 | 36.2 | PGC>TRAP>CBP>SRC | effective | 30.8 | 68.5 | 19.9 | 44 | > 10 | > 10 | > 30 | > 10 | PGC=CBP=TRAP>SRC | CSc1ccc(C(=O)/C=C/c2cc(C)c(OC(C)(C)C(=O)O)c(C)c2)cc1 [Elafibranor, elafibranor] | Emax [3, 24]: 36%; Emax [3, 25]: 30.8%; Emax [3, 26]: 9.11%; Emax [3, 27]: 29%
